From US20070059385A1, “Safe pharmaceutical composition for treating and preventing cancer and method of use” (priority 2005, published 2007)

Experiment: Metabolism (organ and blood radioactivity) of [^3H]-HHT in P388 mice
Assay type: in vivo
Settings: blood
Description: Animals: Adult DBA/2J male mice, 6 to 8 weeks old. All animals weighed approximately 25 g when used in experiments. Each member of which received identical dosed (i.p.) of HHT.
Tumor: P388 leukemic cells induced in mice by inoculation with L1210 or P388 leukemic cells ([…]).
After P388 induced in mice 5 days, 1 mg/kg of [^3H]-HHT (100 μC/mg) was injected to mice. Volumes were 0.01 ml/g body weight. […] The key data of HHT in metabolism process are determined counts per minute (CPM) of [^3H]-HHT in organs. CPM is determined by liquid scintillation counting (LSC). The methods of LSC combined with radioactive of [^3H]-HHT can be determined using a tracer of HHT in organs. After killed animals, organs and blood were obtained from P388 mice. Organs were weighted. 10 mg of organs were digested. 10 ml of scintillation solution (which containing […]) were added to digested solution and determined at LSC. Other processes are similar to the standard method.

Question: For `COC(=O)C[C@](O)(CCCC(C)(C)O)C(=O)O[C@@H]1C(OC)=C[C@]23CCCN2CCc2cc4c(cc2[C@H]13)OCO4` [[^3H]-HHT], which “[^3H]-HHT in blood” value (1 h) is on record?
Answer: 1820 CPM

Question: What about the “[^3H]-HHT in blood” value (2 h) of the same compound?
Answer: 1650 CPM

Question: And the “[^3H]-HHT in blood” value (4 h)?
Answer: 1100 CPM

Question: And the “[^3H]-HHT in blood” value (8 h)?
Answer: 920 CPM

Question: And the “[^3H]-HHT in blood” value (16 h)?
Answer: 428 CPM

Question: What about the “[^3H]-HHT in blood” value (24 h) of the same compound?
Answer: 150 CPM
